Results taken from patent US12558366B2, “Bacterial DNA gyrase inhibitors and methods of use thereof” (THE FLORIDA INTERNATIONAL UNIVERSITY BOARD OF TRUSTEES, priority 2021, dated 2026).
pIC50: −log10 of the molar value. Values after ≈ are worked out from the molar mass of the structure shown. Like-named read-outs stand apart in the source and are kept apart here.

Key:
E. coli DNA gyrase [1] = target: T1, E. coli DNA gyrase (Escherichia coli, UniProt P0AES4+P0AES6); test: E. coli DNA gyrase inhibition (agarose gel-based and/or SDFQ-based, not specified per value); type: biochemical
T1 sequence (P0AES4 whole entry, one chain of several): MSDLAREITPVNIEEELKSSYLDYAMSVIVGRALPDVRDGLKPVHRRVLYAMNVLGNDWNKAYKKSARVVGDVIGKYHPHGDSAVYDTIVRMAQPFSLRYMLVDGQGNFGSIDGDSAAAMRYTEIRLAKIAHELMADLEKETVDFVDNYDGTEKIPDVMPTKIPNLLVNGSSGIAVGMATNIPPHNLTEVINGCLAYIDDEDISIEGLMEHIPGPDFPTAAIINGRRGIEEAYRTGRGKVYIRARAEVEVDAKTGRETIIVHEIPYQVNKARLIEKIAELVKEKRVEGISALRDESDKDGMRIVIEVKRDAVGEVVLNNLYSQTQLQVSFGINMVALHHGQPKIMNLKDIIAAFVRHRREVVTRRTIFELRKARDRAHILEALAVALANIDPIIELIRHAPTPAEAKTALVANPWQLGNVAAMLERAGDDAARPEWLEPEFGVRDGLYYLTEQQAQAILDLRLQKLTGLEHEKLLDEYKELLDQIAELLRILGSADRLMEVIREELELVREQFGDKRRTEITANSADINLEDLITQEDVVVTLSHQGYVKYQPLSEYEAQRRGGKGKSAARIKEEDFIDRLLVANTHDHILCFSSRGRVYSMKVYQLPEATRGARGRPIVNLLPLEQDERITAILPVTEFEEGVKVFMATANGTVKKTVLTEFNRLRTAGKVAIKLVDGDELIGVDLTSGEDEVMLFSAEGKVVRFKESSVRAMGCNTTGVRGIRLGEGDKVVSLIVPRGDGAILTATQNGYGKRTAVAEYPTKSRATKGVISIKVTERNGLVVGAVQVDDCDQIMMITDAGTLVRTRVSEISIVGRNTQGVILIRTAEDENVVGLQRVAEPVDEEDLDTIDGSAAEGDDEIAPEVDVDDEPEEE

Mtb = Mtb inhibition (antibacterial activity); type: cell-based, Mycobacterium tuberculosis; parameters: % Mtb inhibition: concentration or dose not given beside the values; details: for % Mtb inhibition: Table 5
Mtb DNA gyrase = Mtb DNA gyrase (Mycobacterium tuberculosis, UniProt P9WG45+P9WG47); test: Mtb DNA gyrase inhibition; type: biochemical
Chain of Mtb DNA gyrase (P9WG45 whole entry): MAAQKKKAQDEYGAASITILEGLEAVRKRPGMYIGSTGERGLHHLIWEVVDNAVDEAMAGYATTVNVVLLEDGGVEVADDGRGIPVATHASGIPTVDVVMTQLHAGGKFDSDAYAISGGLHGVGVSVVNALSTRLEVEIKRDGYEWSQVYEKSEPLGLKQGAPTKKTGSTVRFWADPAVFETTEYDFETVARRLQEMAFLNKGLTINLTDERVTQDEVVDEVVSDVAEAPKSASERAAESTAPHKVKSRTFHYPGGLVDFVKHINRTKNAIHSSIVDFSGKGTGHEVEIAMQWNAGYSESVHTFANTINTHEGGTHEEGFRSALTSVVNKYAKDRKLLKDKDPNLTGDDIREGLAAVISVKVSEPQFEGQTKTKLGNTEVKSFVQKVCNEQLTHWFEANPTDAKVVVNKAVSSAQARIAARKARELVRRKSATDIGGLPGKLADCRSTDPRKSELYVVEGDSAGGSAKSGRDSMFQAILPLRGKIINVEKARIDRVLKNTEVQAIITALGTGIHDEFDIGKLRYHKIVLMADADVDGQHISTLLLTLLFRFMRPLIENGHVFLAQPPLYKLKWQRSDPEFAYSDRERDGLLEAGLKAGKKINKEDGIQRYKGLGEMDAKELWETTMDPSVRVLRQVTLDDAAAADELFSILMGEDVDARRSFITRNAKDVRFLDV
Chain of Mtb DNA gyrase (P9WG47 whole entry): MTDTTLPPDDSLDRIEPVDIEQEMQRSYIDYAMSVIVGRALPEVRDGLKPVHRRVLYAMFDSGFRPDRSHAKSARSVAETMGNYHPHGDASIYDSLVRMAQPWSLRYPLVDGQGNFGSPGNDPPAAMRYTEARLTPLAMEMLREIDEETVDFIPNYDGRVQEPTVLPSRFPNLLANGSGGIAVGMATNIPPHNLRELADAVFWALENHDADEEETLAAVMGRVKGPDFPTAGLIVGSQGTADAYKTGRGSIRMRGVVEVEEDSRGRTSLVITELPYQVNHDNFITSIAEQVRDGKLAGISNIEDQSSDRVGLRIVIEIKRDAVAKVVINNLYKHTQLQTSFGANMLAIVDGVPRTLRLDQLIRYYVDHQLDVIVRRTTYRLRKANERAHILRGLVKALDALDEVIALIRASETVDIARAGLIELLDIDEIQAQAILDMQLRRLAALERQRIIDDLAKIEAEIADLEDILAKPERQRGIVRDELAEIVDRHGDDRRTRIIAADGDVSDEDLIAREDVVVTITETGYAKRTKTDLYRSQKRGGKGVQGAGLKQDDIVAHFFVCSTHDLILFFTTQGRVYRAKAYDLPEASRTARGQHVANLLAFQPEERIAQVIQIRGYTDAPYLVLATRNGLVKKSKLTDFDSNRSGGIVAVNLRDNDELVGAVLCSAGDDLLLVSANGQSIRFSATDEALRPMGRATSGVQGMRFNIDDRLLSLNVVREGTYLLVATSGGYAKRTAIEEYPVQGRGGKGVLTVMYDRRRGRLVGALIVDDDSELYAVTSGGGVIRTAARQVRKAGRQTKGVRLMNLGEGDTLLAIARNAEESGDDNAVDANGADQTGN

J774 = test: Cytotoxicity in J774 cells; type: cell-based; details: for cytotoxicity: J774, 200 μM; for IC50: highest concentration 200 μM
E. coli (ATCC 25922) = test: Minimum inhibitory concentration, E. coli; type: cell-based; details: for MIC: Escherichia coli, ATCC25922, read-out: Minimum Inhibitory Concentration E. coli
Procedure: (§1) Antibacterial minimum inhibitory concentrations (MICs) were obtained from three independent experiments using broth microdilution methods in 96-well plates according to Clinical and Laboratory Standards Institute guidelines. Cells were culture from singles colonies in MHIIB medium for 24 h at 37° C. in agitation (200 RPM). The cultures were then diluted using the same media to reach an OD600 of 0.1. Then, 50 μL of the diluted cultures were added to the plates holding 50 μL of serially diluted compounds in MHIIB. The plates were incubated at 37° C. for 20 h. The starting inoculum was fixated to 10^5 colony-forming units per ml.

MRSA (ATCC BAA44) = test: microbe, parasite or virus in culture; type: cell-based, S. aureus; details: for MIC: Staphylococcus aureus
Procedure: as §1

HepG2 = test: Cytotoxicity in HepG2 cells; type: cell-based; details: for cytotoxicity: HepG2, 200 μM; for IC50: highest concentration 200 μM
B. subtilis (ATCC 6633) = test: Minimum inhibitory concentration, B. subtilis; type: cell-based; details: for MIC: Bacillus subtilis, ATCC6633, Tables 3a-3c
Procedure: as §1

E. coli imp = test: microbe, parasite or virus in culture; type: cell-based; details: for MIC: Escherichia coli, read-out: Minimum Inhibitory Concentration E. coli imp
Procedure: as §1

S. aureus (ATCC 14775) = test: Minimum inhibitory concentration, S. aureus; type: cell-based; details: for MIC: Staphylococcus aureus
Procedure: as §1

E. coli DNA gyrase [2] = target: T1, E. coli DNA gyrase; test: Agarose gel-based DNA gyrase inhibition assays; type: biochemical; details: 200 μM of compounds
Procedure: 100 ng of DNA gyrase was used to supercoil the rx pAB1 in the presence of different concentrations of a gyrase inhibitor. […] Samples were analyzed by electrophoresis in 1% w/v agarose gels followed by ethidium bromide staining and photographed under UV light.

DNA = DNA binding, intercalation and photo-induced crosslinking
[3] = Table 2 values, read-out: IC50 ( ≤15 μM) IC50
[4] = read-out: Minimum Inhibitory Concentration S. aureus MRSA
[5] = ATCC14775, Tables 3a-3c, read-out: Minimum Inhibitory Concentration S. aureus

In the case of `Cc1c(CCC(=O)O)c(=O)oc2cc3occ(-c4ccc(Br)cc4)c3cc12` [Compound 46], the pIC50 (E. coli DNA gyrase [1]) was 4.94, the “inhibition of E. coli DNA gyrase activities” value (E. coli DNA gyrase [1]) was “potent bacterial DNA gyrase inhibitors” and the pIC50 (E. coli DNA gyrase [1]; [3]) was 4.95. The “activity against Mtb” value (Mtb) was “most active for Mtb”, the inhibition at 20 µM (Mtb; Mycobacterium tuberculosis, read-out: % inhibition (20 μM), 20 μM, Table 6) was 82.3% and the IC50 (Mtb DNA gyrase; Table 5) was 75 µM. The cytotoxicity (J774) was “no cytotoxicity evident”, the IC50 (J774; Mus musculus, J774) was greater than 200 µM and the MIC (E. coli (ATCC 25922)) was greater than 200 µM. The MIC (MRSA (ATCC BAA44); read-out: MIC (μM) MRSA) was greater than 200 µM, the MIC (MRSA (ATCC BAA44); [4]) was greater than 200 µM and the cytotoxicity (HepG2) was “no cytotoxicity evident”. It also gave an IC50 (HepG2; Homo sapiens, HepG2) greater than 200 µM, an MIC (B. subtilis (ATCC 6633)) of 6.25 µM (≈ 2.67 µg/mL) and an MIC (E. coli imp) of 6.25 µM (≈ 2.67 µg/mL). The MIC (S. aureus (ATCC 14775); ATCC14775, Table 5, read-out: MIC (μM) SA) was greater than 200 µM, the MIC (S. aureus (ATCC 14775); [5]) was greater than 200 µM and the “inhibition of E. coli DNA gyrase activities” value (E. coli DNA gyrase [2]) was “completely inhibited”.
For `Cc1c(CCC(=O)O)c(=O)oc2c(C)c3occ(-c4ccc(N5CCCC5)cc4)c3cc12` [Compound 125], the “% Mtb inhibition” value (Mtb) was 10.2%, the “growth inhibition of MRSA” value (MRSA (ATCC BAA44)) was “did not inhibit the growth” and the “growth inhibition of S. aureus” value (S. aureus (ATCC 14775)) was “did not inhibit the growth”.
For `Cc1c(CCC(=O)O)c(=O)oc2c(C)c3occ(-c4ccc5ccccc5c4)c3cc12` [Compound 124], the “activity against Mtb” value (Mtb) was “most active for Mtb”, the cytotoxicity (J774) was “no cytotoxicity evident” and the MIC (E. coli (ATCC 25922)) was greater than 200 µM. For the same compound, the cytotoxicity (HepG2) was “no cytotoxicity evident” and the MIC (E. coli imp) was greater than 200 µM.
In the case of `Cc1cc(C)c2c(c1)C(=NNc1ccc(C(=O)O)cc1)C(O)=N2` [Compound 9, 4-[2-(5,7-Dimethyl-2-oxoindol-3-yl)hydrazinyl]benzoic acid], the pIC50 (E. coli DNA gyrase [1]; [3]) was 5.77, the “growth inhibition of MRSA” value (MRSA (ATCC BAA44)) was “strongly inhibited the growth” and the “growth inhibition of S. aureus” value (S. aureus (ATCC 14775)) was “strongly inhibited the growth”.
With `CSC1SC2C(=O)N(C)C(C(C)C)C(=O)OCC(NC(=O)c3cnc4ccccc4n3)C(=O)NC(C)C(=O)N(C)C1C(=O)N(C)C(C(C)C)C(=O)OCC(NC(=O)c1cnc3ccccc3n1)C(=O)NC(C)C(=O)N2C` (stereo not drawn) [Compound 258] the DNA intercalator (DNA) was “DNA intercalators”.
In the case of `Cc1c(C)c2cc3c(-c4ccc(Br)cc4)coc3c(C)c2oc1=O` [Compound 118], the “inhibition of E. coli DNA gyrase activities” value (E. coli DNA gyrase [1]) was “All psoralen derivatives inhibited E. coli and Mtb DNA gyrase activities except compounds 118 and 122”, the “% Mtb inhibition” value (Mtb) was 21.8% and the “inhibition of Mtb DNA gyrase activities” value (Mtb DNA gyrase) was “All psoralen derivatives inhibited E. coli and Mtb DNA gyrase activities except compounds 118 and 122”. For the same compound, the MIC (MRSA (ATCC BAA44); [4]) was 200 µM (≈ 76.6 µg/mL) and the MIC (S. aureus (ATCC 14775); ATCC14775, read-out: Minimum Inhibitory Concentration S. aureus) was 200 µM (≈ 76.6 µg/mL).
For `CN1/C(=C/c2cc[n+](C)c3ccccc23)Sc2ccccc21.Cc1ccc(S(=O)(=O)[O-])cc1` [Compound 248], the DNA intercalator (DNA) was “DNA intercalators”.
With `CCOc1ccc2nc3cc(N)ccc3c(N)c2c1` [Compound 257] the DNA intercalator (DNA) was “DNA intercalators”.
Work on `Cc1cc(NN=Cc2ccc([N+](=O)[O-])o2)nc2ccccc12` [Compound 134] yielded an MIC (MRSA (ATCC BAA44); [4]) of 200 µM (≈ 59.3 µg/mL) and an MIC (S. aureus (ATCC 14775); [5]) of 200 µM (≈ 59.3 µg/mL).
In the case of `Sc1cccc2c(S)cccc12` [NSC229], the “% inhibition (20 μM)” value (Mtb; 20 μM, Table 6) was 99.3%, the IC50 (J774) was greater than 200 µM and the IC50 (HepG2) was greater than 200 µM.
`Cc1c(CCC(=O)O)c(=O)oc2c(C)c3occ(-c4ccc(-c5ccccc5)cc4)c3cc12` [Compound 119] was tested, and the “activity against Mtb” value (Mtb) was “most active for Mtb”, the cytotoxicity (J774) was “no cytotoxicity evident” and the MIC (E. coli (ATCC 25922)) was greater than 200 µM. For the same compound, the cytotoxicity (HepG2) was “no cytotoxicity evident”, the MIC (B. subtilis (ATCC 6633)) was greater than 200 µM and the MIC (E. coli imp) was greater than 200 µM.
Biphenyl gallate was tested, and the “MIC (μg/ml) E. coli ATCC 25922” value (E. coli (ATCC 25922); Table 7) was 517.29 µg/mL, the “MIC (μg/ml) S. aureus (MRSA) ATCC BAA44” value (MRSA (ATCC BAA44); Table 7) was 16 µg/mL and the “MIC (μg/ml) B. subtilis ATCC 6633” value (B. subtilis (ATCC 6633); Table 7) was 16 µg/mL. The “MIC (μg/ml) E. coli imp” value (E. coli imp; Table 7) was 36.43 µg/mL and the “MIC (μg/ml) S. aureus ATCC 14775” value (S. aureus (ATCC 14775); Table 7) was 16 µg/mL.
For `Cc1c(CCC(=O)O)c(=O)oc2cc3occ(-c4ccc(Cl)cc4)c3cc12` [Compound 25], the pIC50 (E. coli DNA gyrase [1]; [3]) was 4.97, the “% Mtb inhibition” value (Mtb) was 0.8% and the MIC (B. subtilis (ATCC 6633)) was 25 µM (≈ 9.57 µg/mL). The MIC (E. coli imp) was 25 µM (≈ 9.57 µg/mL).
With `Cc1c(CCC(=O)O)c(=O)oc2c(C)c3occ(-c4ccc(F)cc4)c3cc12` [Compound 123] the “% Mtb inhibition” value (Mtb) was 31.8%, the MIC (E. coli (ATCC 25922)) was greater than 200 µM and the MIC (E. coli imp) was greater than 200 µM.
For `Nc1ccc2cc3ccc(N)cc3nc2c1` [Compound 246], the DNA intercalator (DNA) was “DNA intercalators”.
In the case of `COc1cccc2nc3c(C(=O)NCCN(C)C)cccc3cc12.Cl` [Compound 240], the DNA intercalator (DNA) was “DNA intercalators”.
With `CN(C)c1ccc(/C=c2\c3ccccc3n3c2cc(-c2ccccc2)[n+]3C)cc1` [Compound 236] the DNA intercalator (DNA) was “DNA intercalator”.
